Experimental findings from patent publication US9399051B2, “Dipeptidyl peptidase-4 inhibitor” (Kaneka Corporation, priority 2009, dated 2016) are described below.

The subject of the test is C57BL/6J SPF male mice. Description: Oral glucose tolerance test, blood sugar levels in mice. Format: in vivo. The conditions noted are these: mean ± standard error; for Blood sugar level, 0 minutes (pretest value): fasted mice, pretest before administration, in mg/dL (unit assumed); for Blood sugar level, 30 minutes after glucose administration / Blood sugar level, 60 minutes after glucose administration / Blood sugar level, 120 minutes after glucose administration: oral 10 mL/kg (beans 400 mg/mL, sitagliptin 0.1 mg/mL) 30 minutes before oral glucose. The protocol:
The enzyme-treated azuki bean, tora bean and otebo bean prepared in Example 2 and an enzyme-treated defatted soybean prepared using the same method as Example 2 were evaluated for their actual blood sugar lowering effects in the body by using an oral glucose tolerance test. C57BL/6J SPF male mice (Clea Japan, Inc.) were used at age 10 weeks for the study animals. Twenty mice were divided into four groups of 5 mice each. In a single experiment, evaluation was carried out on four groups consisting of a control group (administered distilled water), a positive control group (administered sitagliptin) and two sample groups. Two experiments were carried out and a total of four samples were evaluated.
Blood samples were collected from the caudal veins of the mice that had been fasting since the previous evening, and blood sugar levels were measured using a simple blood glucose measuring device (GLUTEST ACE®, Sanwa Kagaku Kenkyusho Co., Ltd.) to determine pretest values (0 minutes). 100 mg tablets of sitagliptin (MERCK) were ground with a mortar and suspended in water to a concentration of 0.1 mg/mL as sitagliptin for use as a positive control. Each of the enzyme-treated beans prepared in Example 2 (or in accordance with the method thereof) was dissolved with distilled water to a concentration of 400 mg/mL for use as an administration sample. Distilled water (control group), the sitagliptin suspension (positive control group) or the enzyme-treated bean aqueous solution (sample group) was administered orally at 10 mL/kg of body weight. A 40% aqueous glucose solution was administered orally at 5 mL/kg of body weight 30 minutes after administering the distilled water, sitagliptin suspension, or sample. Blood samples were collected from the caudal veins of the mice at, 30, 60 and 120 minutes after the oral administration of glucose, followed by measurement of these blood sugar levels in the same manner as that used for measurement of pretest values.

On to `N[C@@H](CC(=O)N1CCn2c(nnc2C(F)(F)F)C1)Cc1cc(F)c(F)cc1F` [Sitagliptin, sitagliptin], for which, for the setting “Experiment 1”, the “Blood sugar level, 0 minutes (pretest value)” value turned out to be 82.4 ± 7.0; the “Blood sugar level, 30 minutes after glucose administration” value is recorded as 270.6 ± 24.2; the “Blood sugar level, 60 minutes after glucose administration” value came out at 185.4 ± 16.2; the “Blood sugar level, 120 minutes after glucose administration” value was found to be 110.2 ± 12.3. Besides, under “Experiment 2”, the “Blood sugar level, 0 minutes (pretest value)” value amounted to 72.0 ± 4.7; the “Blood sugar level, 30 minutes after glucose administration” value was determined as 215.4 ± 8.5; the “Blood sugar level, 60 minutes after glucose administration” value amounted to 145.0 ± 8.9; the “Blood sugar level, 120 minutes after glucose administration” value is recorded as 93.6 ± 8.7.
